Laboratory results reported in patent publication US10280170B2, “Substituted 4,5,6,7-tetrahydro-pyrazolo[1,5-a]pyrazine derivatives and 5,6,7,8-tetrahydro-4H-pyrazolo[1,5-a][1,4]diazepine derivatives as Ros1 inhibitors” (Janssen Pharmaceutica NV, priority 2014, dated 2019).
Like-named read-outs stand apart in the source and are kept apart here.

Experiments:
[1] = system: HCC78 non-small cell lung cancer cells; experiment: HCC78 cell proliferation assay; format: cell-based; settings: for EC50: Homo sapiens, HCC78, 96 h, read-out: HCC-78 PROL pEC50 (converted)
Method in brief: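 HCC78 NSCLC cells (~1000/well) in RPMI-1640 with 10% FBS were treated 24 h after seeding and exposed to compound for 4 days at 37 °C. Viability was read by MTT, with absorbance at 538 nm after DMSO/glycine solubilization.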

[2] = target: T1, Ba/F3 cells containing Ros1 wild-type protein (Homo sapiens, UniProt P08922, cells depend on it, form not given); experiment: Ba/F3-Ros1 cell proliferation assay, wild-type Ros1; format: cell-based, murine; settings: without IL-3
T1 construct: The background only speaks of 'a number of different unrelated proteins' and names SLC34A2-ROS1 for HCC78 cells
Method in brief: (§1)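 Ba/F3 cells expressing wild-type, L2026M or G2032R Ros1, 20000 cells/well in phenol red-free RPMI-1640 with 10% FBS, 2 mM L-glutamine, exposed to compound for 24 h at 37 °C, 5% CO2. Viability read by Alamar Blue (resazurin) fluorescence, ex 540/em 590 nm, after 4 h further incubation.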

[3] = target: T2, Ros1 enzyme (Homo sapiens, UniProt P08922); experiment: Ros1 enzymatic assay; format: biochemical
T2 construct: 0.5 μg/ml Ros1 enzyme
Method in brief: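 Radiometric proximity read-out: 33P incorporated into IRS-Tide captured on streptavidin imaging beads and imaged on LEADseeker. Phosphorylation ran 120 min at RT with 20 μM ATP (substrate-mix level) in Tris pH7.5/MgCl2/EGTA/Tween buffer; EDTA stop.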

[4] = target: Ba/F3 cells containing Ros1 with a mutation at the gatekeeper residue (L2026M) (Homo sapiens, UniProt P08922, L2026M, cells depend on it, form not given); experiment: Ba/F3-Ros1 cell proliferation assay, L2026M gatekeeper mutant; format: cell-based, murine; settings: without IL-3
Method in brief: as §1

[5] = system: Ba/F3 cells containing Ros1 wild-type protein + IL-3; experiment: Ba/F3-Ros1 cell proliferation counter-screen, wild-type protein in the presence of 10 ng/ml murine IL-3; format: cell-based; settings: Mus musculus, BaF3, 24 h, read-out: BaF3-ROS1 + IL3 pIC50 (converted)
Method in brief: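 IL-3 rescue counter-screen: WT Ros1 Ba/F3, 10 ng/ml mIL-3, 24 h compound exposure, 37 °C/5% CO2; Alamar Blue added 4 h, RFU ex540/em590.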

[6] = Ros1 enzymatic assay, read-out: ROS1 pIC50 (converted)
[7] = counter-screen, wild-type, 10 ng/ml murine IL-3

T1 sequence (P08922 whole entry, stated change not applied): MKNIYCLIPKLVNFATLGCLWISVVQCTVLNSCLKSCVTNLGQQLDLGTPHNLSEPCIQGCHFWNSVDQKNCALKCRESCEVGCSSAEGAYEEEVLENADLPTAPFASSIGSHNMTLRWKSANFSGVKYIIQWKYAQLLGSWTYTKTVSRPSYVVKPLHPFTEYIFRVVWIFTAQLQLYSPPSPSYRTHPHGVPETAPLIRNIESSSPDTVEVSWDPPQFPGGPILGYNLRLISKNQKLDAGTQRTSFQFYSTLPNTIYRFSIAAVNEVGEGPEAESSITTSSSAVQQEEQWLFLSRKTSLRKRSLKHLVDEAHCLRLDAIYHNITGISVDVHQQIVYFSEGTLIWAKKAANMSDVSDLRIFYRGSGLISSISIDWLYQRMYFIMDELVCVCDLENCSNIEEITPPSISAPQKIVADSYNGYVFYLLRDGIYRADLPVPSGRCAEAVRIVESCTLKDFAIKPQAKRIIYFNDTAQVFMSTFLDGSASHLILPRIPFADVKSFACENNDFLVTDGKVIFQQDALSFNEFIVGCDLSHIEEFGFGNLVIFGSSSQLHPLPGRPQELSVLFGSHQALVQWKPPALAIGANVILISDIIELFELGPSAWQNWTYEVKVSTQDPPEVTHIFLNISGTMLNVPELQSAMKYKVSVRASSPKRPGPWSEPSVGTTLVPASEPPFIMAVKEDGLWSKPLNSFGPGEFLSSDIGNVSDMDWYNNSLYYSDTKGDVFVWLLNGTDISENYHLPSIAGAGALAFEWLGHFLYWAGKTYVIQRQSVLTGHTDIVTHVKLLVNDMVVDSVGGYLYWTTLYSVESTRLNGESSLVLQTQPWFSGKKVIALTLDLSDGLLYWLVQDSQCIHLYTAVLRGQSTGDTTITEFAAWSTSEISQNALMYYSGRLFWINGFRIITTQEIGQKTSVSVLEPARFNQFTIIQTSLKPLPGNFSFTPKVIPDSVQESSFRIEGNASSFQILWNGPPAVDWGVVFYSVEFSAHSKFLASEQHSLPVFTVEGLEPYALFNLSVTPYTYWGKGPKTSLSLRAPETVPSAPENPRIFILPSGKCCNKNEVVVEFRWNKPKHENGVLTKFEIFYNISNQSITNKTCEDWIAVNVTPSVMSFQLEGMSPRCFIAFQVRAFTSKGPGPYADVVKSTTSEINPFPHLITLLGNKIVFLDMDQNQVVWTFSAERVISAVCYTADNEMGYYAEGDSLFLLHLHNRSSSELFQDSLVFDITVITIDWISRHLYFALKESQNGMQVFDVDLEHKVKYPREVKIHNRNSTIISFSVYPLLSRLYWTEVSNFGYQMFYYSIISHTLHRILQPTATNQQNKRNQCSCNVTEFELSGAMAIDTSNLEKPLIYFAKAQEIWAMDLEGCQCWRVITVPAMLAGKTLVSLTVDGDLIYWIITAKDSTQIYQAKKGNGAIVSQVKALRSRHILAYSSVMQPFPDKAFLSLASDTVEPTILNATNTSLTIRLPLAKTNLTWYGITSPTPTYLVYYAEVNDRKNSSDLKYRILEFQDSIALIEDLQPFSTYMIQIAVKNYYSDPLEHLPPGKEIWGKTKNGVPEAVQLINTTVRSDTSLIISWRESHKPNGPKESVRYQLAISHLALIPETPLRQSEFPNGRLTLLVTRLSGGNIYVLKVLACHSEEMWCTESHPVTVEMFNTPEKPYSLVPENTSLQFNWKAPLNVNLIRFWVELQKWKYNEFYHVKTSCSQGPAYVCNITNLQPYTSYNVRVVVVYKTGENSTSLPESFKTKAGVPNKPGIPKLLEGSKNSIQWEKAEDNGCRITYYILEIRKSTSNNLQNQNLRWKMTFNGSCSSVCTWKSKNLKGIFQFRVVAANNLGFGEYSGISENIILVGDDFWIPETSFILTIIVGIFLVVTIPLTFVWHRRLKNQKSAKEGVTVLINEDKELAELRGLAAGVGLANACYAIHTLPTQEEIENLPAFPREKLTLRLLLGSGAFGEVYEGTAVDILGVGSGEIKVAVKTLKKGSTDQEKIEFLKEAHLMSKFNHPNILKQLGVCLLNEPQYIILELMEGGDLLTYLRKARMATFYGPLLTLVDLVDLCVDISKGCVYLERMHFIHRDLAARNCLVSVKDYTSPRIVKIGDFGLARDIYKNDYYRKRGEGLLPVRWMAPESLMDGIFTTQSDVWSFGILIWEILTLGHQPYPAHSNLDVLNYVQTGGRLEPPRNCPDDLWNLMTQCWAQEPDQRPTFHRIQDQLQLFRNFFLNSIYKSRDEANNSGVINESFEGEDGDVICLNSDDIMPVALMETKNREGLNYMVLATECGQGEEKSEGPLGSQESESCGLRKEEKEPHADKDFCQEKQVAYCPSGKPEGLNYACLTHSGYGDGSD
T2 sequence (P08922 28-2347): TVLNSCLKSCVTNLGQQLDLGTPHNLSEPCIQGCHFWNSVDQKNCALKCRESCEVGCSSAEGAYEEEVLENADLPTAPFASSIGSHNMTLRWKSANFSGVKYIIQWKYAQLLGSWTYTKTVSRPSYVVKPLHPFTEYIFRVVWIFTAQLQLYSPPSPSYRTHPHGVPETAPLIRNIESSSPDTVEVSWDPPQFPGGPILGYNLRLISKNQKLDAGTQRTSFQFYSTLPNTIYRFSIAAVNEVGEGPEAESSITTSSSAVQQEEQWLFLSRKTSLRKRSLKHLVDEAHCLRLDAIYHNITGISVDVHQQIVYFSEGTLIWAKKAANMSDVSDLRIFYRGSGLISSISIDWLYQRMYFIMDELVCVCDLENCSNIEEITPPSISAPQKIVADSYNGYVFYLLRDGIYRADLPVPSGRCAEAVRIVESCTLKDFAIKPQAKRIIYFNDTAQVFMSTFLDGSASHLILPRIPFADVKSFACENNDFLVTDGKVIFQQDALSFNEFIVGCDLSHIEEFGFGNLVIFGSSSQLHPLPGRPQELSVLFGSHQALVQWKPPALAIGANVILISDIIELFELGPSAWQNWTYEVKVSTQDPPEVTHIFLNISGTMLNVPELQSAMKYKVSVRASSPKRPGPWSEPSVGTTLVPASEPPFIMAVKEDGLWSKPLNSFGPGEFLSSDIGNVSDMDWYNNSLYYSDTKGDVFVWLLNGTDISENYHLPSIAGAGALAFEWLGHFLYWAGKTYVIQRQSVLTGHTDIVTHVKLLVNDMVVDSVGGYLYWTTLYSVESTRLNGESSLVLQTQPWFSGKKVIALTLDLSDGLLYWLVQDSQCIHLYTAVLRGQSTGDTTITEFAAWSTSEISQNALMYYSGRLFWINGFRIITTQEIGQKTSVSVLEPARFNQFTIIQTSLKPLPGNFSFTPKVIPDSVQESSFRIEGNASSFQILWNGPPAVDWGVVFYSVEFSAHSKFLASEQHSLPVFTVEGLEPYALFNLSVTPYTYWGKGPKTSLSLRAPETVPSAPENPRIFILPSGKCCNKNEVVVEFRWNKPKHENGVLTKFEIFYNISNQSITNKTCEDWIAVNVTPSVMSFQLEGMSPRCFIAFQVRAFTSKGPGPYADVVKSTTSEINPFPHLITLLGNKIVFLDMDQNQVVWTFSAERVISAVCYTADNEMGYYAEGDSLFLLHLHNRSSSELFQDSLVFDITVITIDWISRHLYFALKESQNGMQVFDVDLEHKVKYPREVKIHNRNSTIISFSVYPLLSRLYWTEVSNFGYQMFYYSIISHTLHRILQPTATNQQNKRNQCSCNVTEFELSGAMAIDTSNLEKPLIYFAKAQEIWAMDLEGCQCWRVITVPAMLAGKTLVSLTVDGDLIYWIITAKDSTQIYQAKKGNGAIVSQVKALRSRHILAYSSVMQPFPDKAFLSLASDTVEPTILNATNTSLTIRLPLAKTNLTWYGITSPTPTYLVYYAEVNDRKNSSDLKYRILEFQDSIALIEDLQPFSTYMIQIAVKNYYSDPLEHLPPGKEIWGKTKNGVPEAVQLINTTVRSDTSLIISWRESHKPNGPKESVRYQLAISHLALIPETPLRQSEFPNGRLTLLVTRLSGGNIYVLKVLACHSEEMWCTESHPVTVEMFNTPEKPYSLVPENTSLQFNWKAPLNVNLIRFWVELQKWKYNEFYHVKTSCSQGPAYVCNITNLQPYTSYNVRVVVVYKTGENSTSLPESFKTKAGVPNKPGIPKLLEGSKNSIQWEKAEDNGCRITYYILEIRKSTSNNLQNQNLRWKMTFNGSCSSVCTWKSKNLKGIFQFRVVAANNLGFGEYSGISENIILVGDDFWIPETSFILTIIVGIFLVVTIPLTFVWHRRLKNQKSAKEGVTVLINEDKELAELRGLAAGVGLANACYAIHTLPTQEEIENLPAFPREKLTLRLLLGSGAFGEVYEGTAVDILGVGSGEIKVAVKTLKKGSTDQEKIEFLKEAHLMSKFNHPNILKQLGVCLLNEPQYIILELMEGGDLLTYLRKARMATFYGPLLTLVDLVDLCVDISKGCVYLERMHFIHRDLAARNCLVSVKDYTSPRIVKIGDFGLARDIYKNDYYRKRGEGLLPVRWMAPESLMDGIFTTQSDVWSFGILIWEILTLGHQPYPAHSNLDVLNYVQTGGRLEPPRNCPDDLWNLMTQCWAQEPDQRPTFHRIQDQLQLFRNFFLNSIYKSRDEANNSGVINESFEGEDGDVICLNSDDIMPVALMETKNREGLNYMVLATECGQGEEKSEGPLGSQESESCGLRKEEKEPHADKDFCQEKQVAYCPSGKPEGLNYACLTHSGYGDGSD
Chain of Ba/F3 cells containing Ros1 with a mutation at the gatekeeper residue (L2026M) (P08922 whole entry L2026M, form open): as the sequence (P08922 whole entry, stated change not applied) above, with L2026M counted along it

Row | Structure (SMILES) | EC50 [1] [nM] | BaF3-ROS1-IL3 pIC50 [2] | IC50 [3, 6] [nM] | melting point [°C] | Ba/F3 Ros1 L2026M (-IL-3) pIC50 [4] | CC50 [5] [nM] | IC50 ([3]; ROS1 pIC50, Ros1 enzymatic assay) [nM] | EC50 ([1]; HCC78 cells, 4 days, MTT) [nM] | CC50 [5, 7] [nM] | HCC-78 PROL pEC50 ([1]; HCC78 cells, 4 days, MTT)
1 | CC(C)c1ccc(COc2ccc(-c3c(-c4ccncc4)nn4c3C(=O)N(CCS(C)(=O)=O)CC4)cc2)cc1 [Compound 52] | 251 | 7.6 | 50.1 | 219 | 6.9 | > 10000 | – | – | – | –
2 | CC(C)c1ccc(COc2ccc(-c3c(-c4ccncc4)nn4c3C(=O)N(CC3CCCO3)CC4)cc2)cc1 (stereo not drawn) [Compound 55] | 794 | 7.0 | 126 | 165 | 6.8 | > 10000 | – | – | – | –
3 | CC(C)c1ccc(COc2ccc(-c3c(-c4ccncc4)nn4c3C(=O)N(CC(=O)N(C)C)CC4)cc2)cc1 [Compound 64] | 631 | 7.1 | 79.4 | 199 | 6.6 | > 10000 | – | – | – | –
4 | CC(C)NC(=O)CN1CCn2nc(-c3ccncc3)c(-c3ccc(OCc4ccc(C(C)C)cc4)cc3)c2C1=O [Compound 65] | 316 | 7.2 | 100 | 159 | 6.7 | > 10000 | – | – | – | –
5 | CCOP(=O)(CCN1CCn2nc(-c3ccncc3)c(-c3ccc(OCc4ccc(C(C)C)cc4)cc3)c2C1=O)OCC [Compound 68] | 2510 | 6.7 | – | 90 | 6.5 | 2510 | 316 | – | – | –
6 | COc1cc(-c2c(-c3ccncc3)nn3c2C(=O)NCC3)ncc1OCc1ccc(C(C)C)cc1 [Compound 72] | 251 | 7.2 | 63.1 | 231 | 6.0 | > 10000 | – | – | – | –
7 | CC(C)c1ccc(COc2cc(F)c(-c3c(-c4ccncc4)nn4c3C(=O)NCC4)cn2)cc1 [Compound 73] | 126 | 7.9 | 15.8 | 207 | 7.4 | > 10000 | – | – | – | –
8 | CC(C)c1ccc(COc2ccc(-c3c(-c4ccncc4)nn4c3C(=O)NCC4)c(F)n2)cc1 [Compound 74] | 12.6 | 8.1 | 15.8 | 275 | 7.5 | > 10000 | – | – | – | –
9 | CC(C)c1ccc(COc2ncc(-c3c(-c4ccncc4)nn4c3C(=O)NCC4)cn2)cc1 [Compound 75] | 63.1 | 7.9 | 12.6 | 126 | 7.5 | > 10000 | – | – | – | –
10 | CC(C)c1ccc(COc2cnc(-c3c(-c4ccncc4)nn4c3C(=O)NCC4)cn2)cc1 [Compound 76] | 794 | 6.8 | 251 | 225 | 7.0 | > 10000 | – | – | – | –
11 | Cc1cc(C(C)C)ccc1COc1ccc(-c2c(-c3ccncc3)nn3c2C(=O)NCC3)cc1 [Compound 78] | – | 7.1 | 251 | 247 | 6.9 | – | – | 794 | > 10000 | –
12 | CC(C)c1ccc(COc2ccc(-c3c(-c4ccncc4)nn4c3C(=O)N(CCO)CC4)cc2)cc1O [Compound 79] | 2510 | 7.8 | 25.1 | 236 | 7.3 | > 10000 | – | – | – | –
13 | CC(C)c1ccc(COc2ccc(-c3c(-c4ccncc4)nn4c3C(=O)N(CCO)CC4)cc2)cn1 [Compound 81] | 158 | 7.3 | 63.1 | 93 | 6.5 | > 10000 | – | – | – | –
14 | CC(C)c1ccc(COc2ccc(-c3c(-c4ccncc4)nn4c3C(=O)NCC4)cc2)cc1C#N [Compound 85] | – | 7.4 | 39.8 | 240 | 7.1 | – | – | 316 | > 10000 | –
15 | CC(C)c1ccc(COc2ccc(-c3c(-c4ccncc4)nn4c3C(=O)N(CCO)CC4)cc2)cc1C#N [Compound 87] | 200 | 7.3 | 39.8 | 160 | 7.2 | > 10000 | – | – | – | –
16 | CC(C)c1ccc(COc2ccc(-c3c(-c4ccncc4)nn4c3C(=O)NCC4)cc2)cc1CCN [Compound 88] | – | 7.1 | 12.6 | 181 | 6.8 | – | – | 79.4 | > 10000 | –
17 | COCCOc1cc(COc2ccc(-c3c(-c4ccncc4)nn4c3C(=O)NCC4)cc2)ccc1C(C)C [Compound 90] | 158 | 7.2 | 79.4 | 209 | 7.4 | > 10000 | – | – | – | –
18 | CC(C)c1ccc(COc2ccc(-c3c(-c4ccncc4)nn4c3C(=O)N(CCO)CC4)cc2)c(F)c1 [Compound 92] | 200 | 7.2 | 50.1 | 132 | 6.7 | > 10000 | – | – | – | –
19 | CC(C)c1ccc(COc2ccc(-c3c(-c4ccncc4)nn4c3C(=O)N(CCO)CC4)cc2)cc1F [Compound 93] | 398 | 7.2 | 79.4 | 183 | 7.0 | > 10000 | – | – | – | –
20 | CC(C)c1cc(F)c(COc2ccc(-c3c(-c4ccncc4)nn4c3C(=O)N(CCO)CC4)cc2)c(F)c1 [Compound 94] | 398 | 7.0 | 100 | 194 | 6.6 | > 10000 | – | – | – | –
21 | CC(C)c1cc(F)c(COc2ccc(-c3c(-c4ccncc4)nn4c3C(=O)N(CC(O)CO)CC4)cc2)cc1F (stereo not drawn) [Compound 98] | – | 6.8 | 251 | 184 | 6.6 | – | – | – | > 10000 | 6.5
22 | Cc1ccc(COc2ccc(-c3c(-c4ccncc4)nn4c3C(=O)NCC4)cc2)cc1 [Compound 105] | 158 | 7.0 | 126 | 259 | 6.6 | > 10000 | – | – | – | –
